One data set deals with Sal typhosa. Kind of data set: In vitro minimum inhibitory concentration (MIC), tube dilution test. Type of data set: cell-based. Particulars: read-out: Minimal Inhibitory Test Conens. (MIC). As to the method:
A. In vitro: mimimum inhibitory concentration (MIC)
The compound was tested in a standard bacteriological tube dilution test for MIC for a variety of bacteria. Stock cultures of the bacteria listed in Table 1 were grown in bacterial culture media at 37° C. overnight and diluted in culture tubes to a previously determined concentration proper for the test. The compound was added to result in final concentrations of 10, 2, 0.4 and 0.08 μg/ml. These were incubated for 18 hours at 37° C. and then observed to determine if growth of bacteria had occurred. The lowest concentration of the compound that inhibited bacterial growth in the MIC.
*brain-heart infusion broth, 20hour incubation at 37° C.

In another data set the test system is Staphylococcus aureus. Kind of data set: Staphylococcus aureus (mouse infections). Type of data set: in vivo. To be noted: female white mice, oral, at infection and again 4 hours after, 72 hours, Reed-Muench, read-out: ED50 (dose effective to save 50% of the mice). On the procedure:
(§1) Female white mice weighing approximately 20 grams were infected by injecting a sufficient number of E. coli cells intraperitoneally to cause 85-100% fatalities within 3 days after infection. Groups of 12 such infected mice were dosed orally by intubation with the compound suspended in water to equal 40, 20, 10 and 5 mg/kg at the time of infection and again 4 hours after infection time. […] The dose effective to save 50% of the mice (ED50) was calculated by the Reed-Muench method (Reed, L. J. Muench, H. A Single Method of Estimating 50% Endpoints, Am. J. Hygiene 27, p. 493-497 (1938)).
2. Staphylococcus aureus (mouse infections)
The same methods as the previous test were used, except the compound concentrations were 400, 200, 100 and 50 mg/kg. The ED50 's appear in Table 2.

A short description of a further data set: in vivo. To be noted: mouse, in vivo, po; for TD50: doses given in mg./kg. On the procedure:
(§2) 17- to 24-hour fasted female white mice, 16-20 g. each, or rats, 70-90 g. each were dosed orally with test drug (or standard) at 0, 4, 12, 36, 108 or 324 mg./kg.
(§3) Ataxia--The mouse or rat was placed upright on the bench top facing away from the observer. Motor incoordination manifested by abnormal gait or lack of precision during purposive movements constituted ataxia.
(§4) Vertical Bar--The mouse or rat was swung by the tail with head pointing down to a 0.5" diameter (1" diameter for rats), 30.5 cm long vertical rod covered with adhesive tape. Inability to grip the rod with the front paws, sliding or failure to move after being prodded constituted vertical bar loss.
(§5) Body Temperature--The rectal temperatures of the mice and rats were taken using a KC-1 thermocouple probe.
(§6) Excitement and Irritability--Increased spontaneous motor activity, running and jumping prior to handling were recorded as excitement. Upon handling, jumping, jerking, biting and squeaking were recorded as irritability.
(§7) Anorexia--At the end of the 0.5 hour testing period, each mouse was transferred to an individual, clear, Lucite® compartment (13.3 cm×12.7 cm×12.7 cm) with a 0.64 cm×0.64 cm wire mesh floor. Inside each compartment there was a section of a black Lucite® bar [13 cm×1.2 cm×1.2 cm) with ten spot depressions (0.8 cm diameter) each containing 0.05 ml. of 50% sweetened condensed milk. 30 Minutes later the number of milk spots consumed was counted. 5 Mice per drug dose can drink a maximum of 50 spots (2.5 ml. of milk). 15 or fewer spots consumed by 5 mice constituted anorexia.

The subject of the next data set is Escherichia coli. Kind of data set: Escherichia coli (mouse infections). It is filed as in vivo. To be noted: female white mice, oral, at infection and again 4 hours after, 72 hours, Reed-Muench, read-out: ED50 (dose effective to save 50% of the mice). As to the method:
1. Escherichia coli (mouse infections)
as §1

For data set [1] the following is noted: cited from earlier work; for undesirable side effects: Cox, Delaware Medical Journal, 1970.
For another data set, the system named is mice. Kind of data set: General pharmacology screen in mice. Particulars: summary in words of Tables 3 and 4 (mice and rats). As to the method: as §2, §3, §4, §5, §6, §7
Another data set deals with bacteria. To be noted: Ronald et al., New England Journal of Medicine, 1966; cited from earlier work.
Where [2] appears, read: ED50 Anoroxia, 15 or fewer milk spots consumed by 5 mice.
The mark [3] stands for this setting: ED50 Hypertherm., rectal temperature.
[4] abbreviates: ED50 Hypotherm., rectal temperature.
Where [5] appears, read: ED50 Vert. Bar, vertical bar loss.

Converted amounts (≈) assume the structure as drawn. Where two headings read alike, the source gives them in different places.

`O=C(O)c1cn(C(F)F)c2cc3c(cc2c1=O)OCO3` [DFMQ, 1-difluoromethyl-6,7-methylenedioxy-1,4-dihydro-4-oxo-3-quinolinecarboxylic acid]: the MIC (in general, the lowest concentration that inhibits growth of the organism) in the data set with Sal typhosa (20 h) was less than 0.08 µg/mL. The 50% effective dose (ED50) – broadly, the dose that gives a 50% effect, or the effect in half of the subjects – was found to be 149 mg/kg in the data set with Staphylococcus aureus and 9.9 mg/kg in the data set on Escherichia coli. For the same compound, the LD50 (usually the dose at which mortality reaches 50%) at 24 h in the data set “in vivo” is greater than 450 mg/kg. Besides, the TD50 in “in vivo” (setting [2]), in “in vivo” (ED50 Ataxia), in “in vivo” (ED50 Excitation), in the data set “in vivo” (setting [3]), in “in vivo” (setting [4]) and in “in vivo” (ED50 Irritability) was greater than 450 mg/kg throughout. Also, the TD50 in “in vivo” (setting [5]) was greater than 450 mg/kg.
In the case of `CCn1cc(C(=O)O)c(=O)c2ccc(C)nc21` [Nalidixic Acid, nalidixic acid], in data set [1], the undesirable side effects entry is “a relatively high incidence of side effects”. Also, in the data set “in vivo”, the LD50 at 24 h was greater than 450 mg/kg. Further, the TD50 in the data set “in vivo” (setting [2]) is 180 mg/kg; in the data set “in vivo” (ED50 Ataxia) it was 150 mg/kg; in the data set “in vivo” (ED50 Excitation), greater than 450 mg/kg; in “in vivo” (setting [3]), greater than 450 mg/kg; in the data set “in vivo” (setting [4]), 187 mg/kg; in the data set “in vivo” (ED50 Irritability), greater than 450 mg/kg. Moreover, the TD50 in the data set “in vivo” (setting [5]) worked out at 187 mg/kg. The “untoward effects in the general pharmacology screen” value in the data set with mice was “produced some ataxia, and anorexia”. Also, the bacterial resistance entry in the data set with bacteria is listed as “tendency to rapidly evoke bacterial resistance”.
In the case of `CCn1cc(C(=O)O)c(=O)c2cc3c(cc21)OCO3` [Oxolinic Acid, oxolinic acid], the undesirable side effects result in data set [1] was “a high incidence of undesirable side effects”. The “toxicity, use in therapy of urinary tract infections” value in data set [1] (Kershaw and Leigh, 1975) is on record as “because of toxicity, "it should not be used as a first-line drug in the therapy of urinary tract infections."”. Besides, in the data set with Sal typhosa (Sal typhosa (02D), brain-heart infusion broth, 20hour incubation at 37° C.), the minimum inhibitory concentration (MIC) was 0.4 µg/mL (≈ 1.53 µM). Moreover, the 50% lethal dose (LD50) at 24 h in the data set “in vivo” was greater than 450 mg/kg. Also, the TD50 in the data set “in vivo” (setting [2]) was 21 mg/kg; in “in vivo” (ED50 Ataxia) it was 3.2 mg/kg; in “in vivo” (ED50 Excitation), 8 mg/kg; in the data set “in vivo” (setting [3]), greater than 450 mg/kg; in the data set “in vivo” (setting [4]), greater than 450 mg/kg; in “in vivo” (ED50 Irritability) it was 36 mg/kg. Further, the TD50 in “in vivo” (setting [5]) is 4.5 mg/kg. Moreover, the “untoward effects in the general pharmacology screen” value in the data set with mice was “produced ataxia, anorexia, excitation, and irritability”.

(Values after patent US4216324A, “1-Difluoromethyl-6,7-methylenedioxy-1,4-dihyd ro-4-oxo-3-quinolinecarboxylic acid” (E. I. Du Pont de Nemours and Company, priority 1978, dated 1980).)
